# From ChEMBL document CHEMBL1139710, “Syntheses and studies of quinolone-cephalosporins as potential anti-tuberculosis agents” (Bioorg Med Chem Lett, 2006)
# What was measured:
# Enterococcus faecalis = test: Antibacterial activity against Enterococcus faecalis 1528 VRE; format: functional
# Mycolicibacterium aurum [1] = test: Antibacterial activity against Mycobacterium aurum DSM 43436; format: functional
# Micrococcus luteus = test: Antibacterial activity against Micrococcus luteus ATCC 10240; format: functional
# Escherichia coli [2] = test: Antibacterial activity against Escherichia coli DC0; format: functional, organism-based
# Mycolicibacterium vaccae = test: Antibacterial activity against Mycobacterium vaccae IMET10670; format: functional
# [3] = tested on: Mycobacterium tuberculosis; test: Antibacterial activity against Mycobacterium tuberculosis H37Rv by microplate alamar blue assay; format: functional
# Pseudomonas aeruginosa [4] = test: Antibacterial activity against Pseudomonas aeruginosa KW 799/ 61 permeability mutant; format: functional
# Escherichia coli [5] = test: Antibacterial activity against Escherichia coli DC2 permeability mutant; format: functional
# Staphylococcus aureus [6] = test: Antibacterial activity against Staphylococcus aureus 134/93 MRSA; format: functional
# Enterobacter cloacae = test: Antibacterial activity against Enterobacter cloacae P99; format: functional
# [7] = tested on: Mycolicibacterium fortuitum; test: Antibacterial activity against Mycobacterium fortuitum B; format: functional
# Mycolicibacterium aurum [8] = test: Antibacterial activity against Mycobacterium aurum SB66; format: functional
# Staphylococcus aureus [9] = test: Antibacterial activity against Staphylococcus aureus SG 511; format: functional
# [10] = tested on: Mycolicibacterium smegmatis; test: Antibacterial activity against Mycobacterium smegmatis SG987; format: functional
# Pseudomonas aeruginosa [11] = test: Antibacterial activity against Pseudomonas aeruginosa KW 799; format: functional
# Vero = test: Cytotoxicity against Vero cells; format: cell-based; details: Chlorocebus sabaeus
Structure (SMILES),MIC (Enterococcus faecalis),MIC (Mycolicibacterium aurum [1]),MIC (Micrococcus luteus),MIC (Escherichia coli [2]),MIC (Mycolicibacterium vaccae),MIC [3],MIC (Pseudomonas aeruginosa [4]),MIC (Escherichia coli [5]),MIC (Staphylococcus aureus [6]),MIC (Enterobacter cloacae),MIC [7],MIC (Mycolicibacterium aurum [8]),MIC (Staphylococcus aureus [9]),MIC [10],MIC (Pseudomonas aeruginosa [11]),IC50 (Vero),IC50 (Escherichia coli [2])
O=C(Cc1ccccc1)N[C@@H]1C(=O)N2C(C(=O)OC(c3ccccc3)c3ccccc3)=C(CO)CS[C@H]12,200 µM,25 µM,25 µM,> 200 µM,200 µM,> 128 µM,100 µM,200 µM,> 200 µM,200 µM,200 µM,50 µM,3.12 µM,200 µM,100 µM,–,–
COc1ccc(COC(=O)C2=C(CN3CCN(c4cc5c(cc4F)c(=O)c(C(=O)O)cn5C4CC4)CC3)CS[C@@H]3[C@H](NC(=O)Cc4ccccc4)C(=O)N23)cc1,50 µM,1.56 µM,3.12 µM,25 µM,3.12 µM,62.3 µM,12.5 µM,6.25 µM,> 200 µM,0.4 µM,12.5 µM,0.8 µM,1.56 µM,12.5 µM,12.5 µM,13.1 µM,–
O=C(Cc1ccccc1)N[C@@H]1C(=O)N2C(C(=O)O)=C(COC(=O)N3CCN(c4cc5c(cc4F)c(=O)c(C(=O)O)cn5C4CC4)CC3)CS[C@H]12,6.25 µM,0.2 µM,0.2 µM,3.12 µM,1.56 µM,1.6 µM,3.12 µM,0.8 µM,200 µM,0.2 µM,0.8 µM,0.2 µM,0.4 µM,3.12 µM,3.12 µM,> 128 µM,–
O=C(Cc1ccccc1)N[C@@H]1C(=O)N2C(C(=O)OC(c3ccccc3)c3ccccc3)=C(COC(=O)N3CCN(c4cc5c(cc4F)c(=O)c(C(=O)O)cn5C4CC4)CC3)CS[C@H]12,3.12 µM,0.2 µM,12.5 µM,–,1.56 µM,8 µM,1.56 µM,0.2 µM,100 µM,< 0.1 µM,0.8 µM,0.2 µM,0.2 µM,1.56 µM,1.56 µM,> 128 µM,1.56 µM
O=C(Cc1ccccc1)N[C@@H]1C(=O)N2C(C(=O)O)=C(CN3CCN(c4cc5c(cc4F)c(=O)c(C(=O)O)cn5C4CC4)CC3)CS[C@H]12,12.5 µM,0.4 µM,0.4 µM,3.12 µM,3.12 µM,3.8 µM,1.56 µM,0.8 µM,200 µM,0.1 µM,3.12 µM,0.4 µM,1.56 µM,3.12 µM,1.56 µM,> 128 µM,–
COc1ccc(COC(=O)C2=C(CI)CS[C@@H]3[C@H](NC(=O)Cc4ccccc4)C(=O)N23)cc1,200 µM,50 µM,100 µM,200 µM,100 µM,> 128 µM,100 µM,200 µM,> 200 µM,100 µM,200 µM,100 µM,6.25 µM,> 200 µM,100 µM,–,–
COc1ccc(COC(=O)C2=C(CCl)CS[C@@H]3[C@H](NC(=O)Cc4ccccc4)C(=O)N23)cc1,–,–,50 µM,200 µM,100 µM,31.5 µM,50 µM,–,–,–,100 µM,–,1.56 µM,–,100 µM,–,–
O=C(O)c1cn(C2CC2)c2cc(N3CCNCC3)c(F)cc2c1=O [CIPROFLOXACIN],1.56 µM,0.1 µM,25 µM,0.4 µM,0.8 µM,1.8 µM,0.4 µM,< 0.1 µM,50 µM,–,0.2 µM,0.1 µM,0.8 µM,0.8 µM,0.8 µM,–,–
